Measured values: PMC10427684, “Diversity-oriented synthesis encoded by deoxyoligonucleotides” (Nature Communications, 2023)

Each compound was assayed against T1, glutathione S-transferase (GST), His-tagged (Schistosoma japonicum, UniProt P08515) (assay: DSF with isolated His-tagged GST (dose-dependent thermal shift), confirmed by SPR). Details: read-out: delta_Tm.
T1 construct: His-tagged GST (Abcam ab89494); also the GST portion of N-His-GST-tagged USP7 (Lys208-Glu560)
T1 sequence (P08515 2-218): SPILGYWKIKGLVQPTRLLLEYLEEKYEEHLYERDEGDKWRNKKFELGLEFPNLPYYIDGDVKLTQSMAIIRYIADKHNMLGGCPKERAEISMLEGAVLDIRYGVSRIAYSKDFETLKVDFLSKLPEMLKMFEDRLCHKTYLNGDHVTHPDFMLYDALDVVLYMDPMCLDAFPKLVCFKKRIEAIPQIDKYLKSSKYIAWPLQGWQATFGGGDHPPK
Format: binding
In the case of `C=CCNc1ncc(C(=O)N2CC[C@H](c3cccc(-c4cc(F)cc(OCC(=O)O)c4)c3)[C@@H]2C(=O)NC)s1` [compound 3, 3], the ΔTm at 100 µM is reported as 3.3 °C.

These compounds were tested against T2, Carbonic anhydrase II (CAII), BioVision kit #K473-100 (Homo sapiens, UniProt P00918) (assay: biochemical). Details: not given.
T2 construct: gene CA2; kit enzyme
Set-up: CAII esterase activity inhibition kit, absorbance at 405 nm, dose-response
Experimental: Carbonic anhydrase II (CAII) inhibition assays were performed using a commercially available kit (BioVision, #K473-100), following the manufacturer’s protocol. For each assayed DOSEDO compound, 11 concentrations (half-log dilutions from 10 µM to 100 pM) were tested, with three technical replicates performed on each of two separate 384-well µClear® medium-binding, flat-bottom polystyrene microplates (Greiner Bio-One, #82051-294) (n = 6 for each compound concentration); for 53 only, six technical replicates (n = 6) were performed on the same plate for each compound concentration. Each reaction well contained 3 µL of compound (prepared in 10% DMSO, 90% kit buffer), 25.5 µL of enzyme/buffer mix (1.4 µL enzyme, 24.1 µL kit buffer), and 1.5 µL of substrate, for a total volume of 30 µL. Absorbance at 405 nm was read on a Molecular Devices SpectraMax i3x. In addition to the experimental conditions, a DMSO control and a no-enzyme control were each performed with three technical replicates on each plate, except for the experiment with 53, where six technical replicates for each control were performed on the same plate. The average change in absorbance for the no-enzyme control was subtracted from the change in absorbance over the same time interval for each experimental condition and the DMSO control on the same plate. For each concentration of each compound, relative activity was calculated separately for each replicate based on the average change in absorbance for the DMSO control on the same plate. Dose-response curves were fitted and IC50 values and 95% confidence intervals were calculated using GraphPad Prism v9.2.0. Curves were fitted using GraphPad Prism’s log(inhibitor) vs. response-variable slope nonlinear regression equation, with the top asymptote constrained to 100. Outliers were detected and removed via GraphPad Prism’s ROUT method, with a Q-value of 1%. Error bars (only shown if greater than the height of the symbol) represent 95% confidence intervals (Supplementary Fig. 22).
With `CNC(=O)[C@H]1C[C@@H](Oc2cccc(C3=CCNCC3)c2)CN1S(=O)(=O)c1ccc(S(N)(=O)=O)cc1` [compound 45, (2R,4R)-N-Methyl-1-((4-sulfamoylphenyl)sulfonyl)-4-(3-(1,2,3,6-tetrahydropyridin-4-yl)phenoxy)pyrrolidine-2-carboxamide] the IC50 was 26 nM. With `CC(=O)N1CC2(CN(Cc3ccc(S(N)(=O)=O)o3)C[C@@H]2c2ccc(-c3ccc(F)c(CN(C)C)c3)cc2)C1` [compound 46, (R)-5-((2-Acetyl-8-(3'-((dimethylamino)methyl)-4'-fluoro-[1,1'-biphenyl]-4-yl)-2,6-diazaspiro[3.4]octan-6-yl)methyl)furan-2-sulfonamide] the IC50 was 279 nM. `CNC(=O)[C@H]1C[C@H](Oc2cccc(-c3ccc(S(N)(=O)=O)cc3)c2)CN1Cc1cn2c(n1)CCC2` [compound 52, (2R,4S)-1-((6,7-Dihydro-5H-pyrrolo[1,2-a]imidazol-2-yl)methyl)-N-methyl-4-((4'-sulfamoyl-[1,1'-biphenyl]-3-yl)oxy)pyrrolidine-2-carboxamide] was tested, and the IC50 was 64 nM. For `CC(=O)N1C[C@H](c2ccc(-c3cccc(S(N)(=O)=O)c3)cc2)C2(C1)CN(C(=O)c1nc(C)n3c1CCCC3)C2` [compound 53, (R)-4'-(6-Acetyl-2-(3-methyl-5,6,7,8-tetrahydroimidazo[1,5-a]pyridine-1-carbonyl)-2,6-diazaspiro[3.4]octan-8-yl)-[1,1'-biphenyl]-3-sulfonamide], the IC50 was over 10000 nM. Work on `CC(=O)N1C[C@@H](c2ccc(-c3ccc(S(N)(=O)=O)cc3)cc2)C2(C1)CN(C(=O)C(C)Oc1cccc(C#N)c1)C2` (stereo partly drawn) [compound 54, 4'-((8S)-6-Acetyl-2-(2-(3-cyanophenoxy)propanoyl)-2,6-diazaspiro[3.4]octan-8-yl)-[1,1'-biphenyl]-4-sulfonamide] yielded an IC50 of 34 nM. With `C[C@H]1CN([C@@H](C)CO)S(=O)(=O)c2ccc(-c3ccc(S(N)(=O)=O)cc3)cc2O[C@H]1CN(C)C(=O)c1cnoc1-c1ccco1` [compound 57, 5-(Furan-2-yl)-N-(((4S,5R)-2-((S)-1-hydroxypropan-2-yl)-4-methyl-1,1-dioxido-8-(4-sulfamoylphenyl)-2,3,4,5-tetrahydrobenzo[b][1,4,5]oxathiazocin-5-yl)methyl)-N-methylisoxazole-4-carboxamide] the IC50 was 31 nM. With `C[C@H](CO)N1C[C@H](C)[C@@H](CN(C)C(=O)c2coc(S(C)(=O)=O)c2)Oc2cc(-c3ccc(S(N)(=O)=O)cc3)ccc2S1(=O)=O` [compound 58, N-(((4S,5S)-2-((R)-1-Hydroxypropan-2-yl)-4-methyl-1,1-dioxido-8-(4-sulfamoylphenyl)-2,3,4,5-tetrahydrobenzo[b][1,4,5]oxathiazocin-5-yl)methyl)-N-methyl-5-(methylsulfonyl)furan-3-carboxamide] the IC50 was 17 nM. `C[C@@H]1CN([C@@H](C)CO)S(=O)(=O)c2ccc(-c3ccc(S(N)(=O)=O)cc3)cc2O[C@H]1CN(C)C(=O)c1cnoc1-c1ccco1` [compound 59, 5-(Furan-2-yl)-N-(((4R,5R)-2-((S)-1-hydroxypropan-2-yl)-4-methyl-1,1-dioxido-8-(4-sulfamoylphenyl)-2,3,4,5-tetrahydrobenzo[b][1,4,5]oxathiazocin-5-yl)methyl)-N-methylisoxazole-4-carboxamide] gave an IC50 of 16 nM.
